Experimental data published in patent publication US10041047B2, “Compositions and methods for epithelial stem cell expansion and culture” (The Brigham and Women's Hospital, Inc., priority 2013, dated 2018).

Assays:
[1] = system: single Lgr5-GFP cells; assay: Culture of FACS-sorted single Lgr5-GFP cells: colony formation, proliferation, GFP expression; type: cell-based; details: for GFP expression / cell proliferation: single GFP-high cells, 7 day culture with ENR
Experimental: Crypts and single Lgr5-GFP cells were isolated as previously described (Sato et al., 2009). Briefly, the proximal half of the small intestine was harvested, opened longitudinally, and washed with cold PBS to remove luminal content. The tissue was then cut into 2-4 mm pieces with scissors and further washed 5-10 times with cold PBS by pipetting up and down using a 10-ml pipette. Tissue fragments were incubated with 2 mM EDTA in PBS for 30 min on ice. After removal of EDTA, tissue fragments were washed with PBS to release crypts. Supernatant fractions enriched in crypts were collected, passed through a 70 μm cell strainer and centrifuged at 300 g for 5 minutes. The cell pellet was re-suspended with cell culture media without growth factors and centrifuged at 150 g to remove single cells. Crypts were then cultured or used for single cell isolation. To obtain single cells, crypts were incubated in culture medium for 45 minutes at 37° C. and triturated with a glass pipette. Dissociated cells were passed through 20 μm cell strainer, negative stained with propidium iodide and single viable GFP-high cells were sorted by flow cytometry (FACS Aria, BD) as previously described (Sato et al., 2009). […] Isolated crypts or single cells were cultured as previously described (Sato et al., 2009) with minimal modification. Briefly, crypts or single cells were entrapped in Matrigel and plated at the center of wells in a 24-well plate. After polymerization of Matrigel (growth factor reduced; BD Bioscience), 500 μl of culture medium (Advanced DMEM/F12 (Life Technologies)) was added containing growth factors including EGF (50 ng/ml, Life Technologies), Noggin (100 ng/ml, Peprotech) and R-spondin 1 (500 ng/ml, R&D) and small molecules including CHIR99021 (3 μM, Stemgent) and Valproic Acid (1 mM, Sigma-Aldrich). For comparison of different culture conditions, small molecules or growth factors were added to freshly isolated crypts immediately after plating in Matrigel to test the ability to minimize potential differentiation of the ISC within the crypts and thus sustain crypt cultures. Cell culture media was changed every other day. For single cell culture, cells were embedded in Matrigel containing Jagged-1 peptide (1 μM; AnaSpec) and Y-27632 (10 μM; Tocris) was added for the first 2 days. Cells were passaged either as cell colonies as previously described (Sato et al., 2009) or as single cells. For single cell passage, cell culture medium was removed and Accutase (Life Technologies) was added. After incubation at 37° C. for 10-20 minutes, cell colonies were dissociated into single cells by pipetting. Cells were then washed, embedded in fresh Matrigel and plated into 24-well plates. Cells cultured in the CV condition were passaged every 6 days at a 1:20 split ratio.
The Rho kinase inhibitor Y-27632, which inhibits anoikis of single stem cells (Watanabe et al., 2007), was added for the first two days as previously described (Sato et al., 2009).

[2] = system: Lgr5+ stem cells; assay: Quantitative real-time PCR of mature intestinal epithelial cell markers and Lgr5, 6 day culture (FIG. 6D); type: cell-based, mouse
Experimental: FIGS. 6A-6D depict maintenance of Lgr5+ stem cell self-renewal by the combination of CHIR and VPA. Confocal images of Lysozyme (FIG. 6A), Ki67 (FIG. 6B) and EdU (FIG. 6C) staining of organoids cultured under the ENR condition (Upper panels) and colonies cultured in the ENR-CV condition (Lower panels) are shown. For EdU staining, cells were cultured with the thymidine analogue EdU (red) for 1 hour. In FIGS. 6B and 6C, only crypt domains contain Ki67 positive cells or incorporate EdU in the ENR condition (Upper panels) while Ki67 or EdU is present throughout the cell aggregates in the CV condition (Lower panels). FIG. 6D depicts quantitative real-time PCR analysis of relative mRNA expression of markers for mature intestinal epithelial cells cultured for 6 days under conditions as indicated (Intestinal Alkaline phosphatase [Alpi] for enterocytes, Mucin 2 [Muc2] for goblet cells, Chromogranin A [ChgA] for enteroendocrine cells, Lysozyme [Lyz] for Paneth cells, and Lgr5 for intestinal stem cells). ENR-CV(D40) indicates cells that were cultured in the CV condition for 40 days. Scale bars: 50 μm. In FIG. 6D, the series are, from left to right, Alpi, Muc2, ChgA, Lyz, and Lgr5.
As previously reported, cells in the ENR condition grew into organoids with crypt-villus structure containing all intestinal epithelial cell types, confirmed by staining of alkaline phosphatase (Alp) positive enterocytes, Mucin 2 (Muc2) positive goblet cells, Chromogranin A (ChgA) positive enteroendocrine cells, Lysozyme (Lyz) positive Paneth cells and Lgr5-GFP^+ stem cells. Lgr5^+ stem cells only reside at the tips of crypt (FIGS. 6A and 7A). […] In the CV condition, however, GFP^+ stem cells were present throughout the entire colony with minimal presence of Paneth cells (FIG. 6A) and without the presence of other cells types. Compared to ENR culture, Ki67 or EdU positive proliferating cells in the CV condition existed throughout the cell colony (FIGS. 6B and 6C). […] This expression pattern was maintained over multiple passages, and the Lgr5 expression level was maintained (FIG. 6D). […]

[3] = system: Lgr5+ stem cells; assay: Controlled differentiation of Lgr5+ stem cells after CV culture (RT-PCR and staining of differentiation markers); type: cell-based, mouse; details: colonies from 6 days CV, then 4 days with ENR plus agents (FIG. 7B)
[4] = system: Lgr5+ stem/progenitor cells derived from the mouse inner ear; assay: Culture of inner ear (cochlear) Lgr5-GFP epithelial cells in Matrigel; type: cell-based; details: organ of Corti single cells, Matrigel, 8 days
From the text: The same culture condition (EGF, Noggin, R-spondin1, or “ENR”) as used in Lgr5+ small intestinal stem cell cultures was first established.
Isolated organ of Corti from Lgr5-GFP mice were dissociated into single cells using accutase and cultured in multiple combinations of soluble factors and small molecules in Matrigel for 8 days. The resulting cultures were further dissociated into single cells and analyzed using FACS. […] In addition, the combination of EGF, bFGF and IGF-1 (designated as EFI) improved cell proliferation and GFP expression compared with the ENR condition (FIG. 14A-14C).
To further investigate the effects of individual growth factors when combined with CHIR and VPA, growth factors including Mitogenic growth factors (EGF, bFGF and IGF-1) as well as the Wnt agonist R-spondin 1 in combination with CHIR and VPA were tested.

Cc1cnc(-c2cnc(NCCNc3ccc(C#N)cn3)nc2-c2ccc(Cl)cc2Cl)[nH]1 [CHIR99021, 6-[[2-[[4-(2,4-Dichlorophenyl)-5-(5-methyl-1H-imidazol-2-yl)-2-pyrimidinyl]amino]ethyl]amino]-3-pyridinecarbonitrile]
increase of colony-forming efficiency ([1]; CHIR added to ENR, single Lgr5-GFP+ cells): 20-50 fold | GFP expression [1]: only moderately increased | cell proliferation [1]: significantly increased cell proliferation | Paneth cell differentiation [2]: increased | enterocyte differentiation [2]: reduces | ChgA expression [3]: did not significantly influence | GFP expression (in words) [4]: not CHIR or VPA alone | cell proliferation (in words) [4]: not CHIR or VPA alone

CCCC(CCC)C(=O)O [Valproic Acid]
GFP expression [1]: promoted GFP expression | cell proliferation [1]: minimal pro-proliferative effect | colony-forming efficiency (in words) ([1]; single Lgr5-GFP+ cells, agent(s) added to ENR): only weakly increased | secretory differentiation [2]: decreased | ChgA expression [3]: lower level of expression | Lysozyme expression [3]: lower level of expression | Muc2 expression [3]: lower level of expression | GFP expression (in words) [4]: not CHIR or VPA alone | cell proliferation (in words) [4]: not CHIR or VPA alone
